This experiment deals with MV-4-11 cells. As to the kind of experiment: Gene expression microarray analysis (Affymetrix PrimeView) and GSEA. In kind it is cell-based, human. The arrangement: RFU PODN (11730768_x_at) / Fold change /veh PODN (11730768_x_at) / RFU LINC00158 (11744669_a_at) / Fold change /veh LINC00158 (11744669_a_at) / RFU DUSP10 (11751237_a_at) / Fold change /veh DUSP10 (11751237_a_at) / RFU ID3 (11757404_x_at) / Fold change /veh ID3 (11757404_x_at) / RFU PLEKHG5 (11737974_s_at) / Fold change /veh PLEKHG5 (11737974_s_at) / RFU LRRC4B (11730491_at) / Fold change /veh LRRC4B (11730491_at) / RFU GIMAP4 (11747438_a_at) / Fold change /veh GIMAP4 (11747438_a_at) / RFU KRT8 (11758183_x_at) / Fold change /veh KRT8 (11758183_x_at) / RFU CNN1 (11734310_a_at) / Fold change /veh CNN1 (11734310_a_at) / RFU VPS37D (11726825_at) / Fold change /veh VPS37D (11726825_at) / RFU C10orf10 (11716522_x_at) / Fold change /veh C10orf10 (11716522_x_at) / RFU KIR2DL2 /// KIR2DL4 /// KIR2DL5A /// KIR2DL5B /// KIR2DS1 /// KIR2DS2 /// KIR2DS3 /// KIR2DS4 /// KIR3DL3 /// KIR3DL3 /// KIR3DS1 (11738374_at) / Fold change /veh KIR2DL2 /// KIR2DL4 /// KIR2DL5A /// KIR2DL5B /// KIR2DS1 /// KIR2DS2 /// KIR2DS3 /// KIR2DS4 /// KIR3DL3 /// KIR3DL3 /// KIR3DS1 (11738374_at) / RFU C1QL1 (11718748_at) / Fold change /veh C1QL1 (11718748_at) / RFU TMPRSS4 (11747572_a_at) / Fold change /veh TMPRSS4 (11747572_a_at) / RFU HAMP (11756126_x_at) / Fold change /veh HAMP (11756126_x_at) / RFU RNFT2 (11725882_a_at) / Fold change /veh RNFT2 (11725882_a_at) / RFU NR4A2 (11747474_a_at) / Fold change /veh NR4A2 (11747474_a_at) / RFU ABCC12 (11746883_a_at) / Fold change /veh ABCC12 (11746883_a_at) / RFU TMEM136 (11760407_x_at) / Fold change /veh TMEM136 (11760407_x_at) / RFU CLDN22 /// WWC2 (11732394_at) / Fold change /veh CLDN22 /// WWC2 (11732394_at) / RFU HLA-DPB1 (11760878_x_at) / Fold change /veh HLA-DPB1 (11760878_x_at) / RFU SPINT1 (11716480_a_at) / Fold change /veh SPINT1 (11716480_a_at) / RFU GAP43 (11754022_s_at) / Fold change /veh GAP43 (11754022_s_at) / RFU A4GNT (11735810_at) / Fold change /veh A4GNT (11735810_at) / RFU PRB3 (11715151_x_at) / Fold change /veh PRB3 (11715151_x_at) / RFU TUBB4B (11761932_at) / Fold change /veh TUBB4B (11761932_at) / RFU CAPN14 (11732068_a_at) / Fold change /veh CAPN14 (11732068_a_at) / RFU TMCC2 (11721928_a_at) / Fold change /veh TMCC2 (11721928_a_at) / RFU IRGQ (11745062_a_at) / Fold change /veh IRGQ (11745062_a_at) / RFU FAM174B (11720279_a_at) / Fold change /veh FAM174B (11720279_a_at) / RFU TMPRSS4 (11748680_a_at) / Fold change /veh TMPRSS4 (11748680_a_at) / RFU FAM212B (11763350_a_at) / Fold change /veh FAM212B (11763350_a_at) / RFU PLEKHG5 (11743358_a_at) / Fold change /veh PLEKHG5 (11743358_a_at) / RFU ZSCAN30 (11745921_a_at) / Fold change /veh ZSCAN30 (11745921_a_at) / RFU CMKLR1 (11741424_a_at) / Fold change /veh CMKLR1 (11741424_a_at) / RFU LOC101060620 /// MAPK8IP1 (11723275_at) / Fold change /veh LOC101060620 /// MAPK8IP1 (11723275_at) / RFU SPTSSB (11747773_x_at) / Fold change /veh SPTSSB (11747773_x_at) / RFU PRSS12 (11739890_at) / Fold change /veh PRSS12 (11739890_at) / RFU BIN1 (11741810_x_at) / Fold change /veh BIN1 (11741810_x_at) / RFU WNT11 (11732464_a_at) / Fold change /veh WNT11 (11732464_a_at) / RFU C10orf10 (11716521_a_at) / Fold change /veh C10orf10 (11716521_a_at) / RFU C5orf56 (11738089_at) / Fold change /veh C5orf56 (11738089_at) / RFU CYB561 (11721691_x_at) / Fold change /veh CYB561 (11721691_x_at) / RFU ANKRD19P (11752326_a_at) / Fold change /veh ANKRD19P (11752326_a_at) / RFU OR2T12 /// OR2T33 /// OR2T8 (11738714_s_at) / Fold change /veh OR2T12 /// OR2T33 /// OR2T8 (11738714_s_at) / RFU VCAN (11748164_a_at) / Fold change /veh VCAN (11748164_a_at) / RFU JSRP1 (11732532_at) / Fold change /veh JSRP1 (11732532_at) / RFU KRTAP10-11 (11738290_x_at) / Fold change /veh KRTAP10-11 (11738290_x_at) / RFU MYO3A (11730013_a_at) / Fold change /veh MYO3A (11730013_a_at) / RFU EBF3 (11725865_a_at) / Fold change /veh EBF3 (11725865_a_at) / RFU CAMK2N1 (11719241_x_at) / Fold change /veh CAMK2N1 (11719241_x_at) / RFU C5orf56 (11738088_a_at) / Fold change /veh C5orf56 (11738088_a_at) / RFU OLFML3 (11715873_a_at) / Fold change /veh OLFML3 (11715873_a_at) / RFU LOC100653217 /// NTM (11731650_a_at) / Fold change /veh LOC100653217 /// NTM (11731650_a_at) / RFU MAPK11 (11762145_a_at) / Fold change /veh MAPK11 (11762145_a_at) / RFU FIZ1 (11724087_x_at) / Fold change /veh FIZ1 (11724087_x_at) / RFU OASL (11726364_x_at) / Fold change /veh OASL (11726364_x_at) / RFU SOX15 (11748057_x_at) / Fold change /veh SOX15 (11748057_x_at) / RFU CD79A (11719716_a_at) / Fold change /veh CD79A (11719716_a_at) / RFU HIST1H1D (11736915_at) / Fold change /veh HIST1H1D (11736915_at) / RFU CASKIN2 (11723855_a_at) / Fold change /veh CASKIN2 (11723855_a_at) / RFU LOC730098 (11760151_x_at) / Fold change /veh LOC730098 (11760151_x_at) / RFU OR4N2 (11742367_at) / Fold change /veh OR4N2 (11742367_at) / RFU PRRT2 (11749266_a_at) / Fold change /veh PRRT2 (11749266_a_at) / RFU SNX32 (11753110_a_at) / Fold change /veh SNX32 (11753110_a_at) / RFU CDHR5 (11726645_a_at) / Fold change /veh CDHR5 (11726645_a_at) / RFU RCAN1 (11760418_a_at) / Fold change /veh RCAN1 (11760418_a_at) / RFU FAM167A (11723789_a_at) / Fold change /veh FAM167A (11723789_a_at) / RFU FAM26E (11764081_at) / Fold change /veh FAM26E (11764081_at) / RFU ISYNA1 (11749810_s_at) / Fold change /veh ISYNA1 (11749810_s_at) / RFU ACY1 (11761880_at) / Fold change /veh ACY1 (11761880_at) / RFU 11764098_at / Fold change /veh 11764098_at / RFU SAMD14 (11745864_x_at) / Fold change /veh SAMD14 (11745864_x_at) / RFU NPB (11741838_a_at) / Fold change /veh NPB (11741838_a_at) / RFU TMPRSS6 (11731388_a_at) / Fold change /veh TMPRSS6 (11731388_a_at) / RFU KRTAP10-2 (11738614_at) / Fold change /veh KRTAP10-2 (11738614_at) / RFU ARHGAP8 /// PRR5-ARHGAP8 (11727945_x_at) / Fold change /veh ARHGAP8 /// PRR5-ARHGAP8 (11727945_x_at) / RFU KRTAP5-7 /// NADSYN1 (11734609_at) / Fold change /veh KRTAP5-7 /// NADSYN1 (11734609_at) / RFU RASL12 (11751679_a_at) / Fold change /veh RASL12 (11751679_a_at) / RFU CDKN2B (11736163_a_at) / Fold change /veh CDKN2B (11736163_a_at) / RFU PRF1 (11729649_at) / Fold change /veh PRF1 (11729649_at) / RFU, ZNF638 /// ZNF638-IT1 / Fold change vs veh, ZNF638 /// ZNF638-IT1 / RFU, PANK3 / Fold change vs veh, PANK3 / RFU, SH3YL1 / Fold change vs veh, SH3YL1 / RFU, ZEB2 / Fold change vs veh, ZEB2 / RFU, NRIP1 / Fold change vs veh, NRIP1 / RFU, PTTG1IP / Fold change vs veh, PTTG1IP / RFU, CAPN2 / Fold change vs veh, CAPN2 / RFU, MED14 / Fold change vs veh, MED14 / RFU, SNORA58 / Fold change vs veh, SNORA58 / RFU, C1orf63 / Fold change vs veh, C1orf63 / RFU, LRRFIP1 / Fold change vs veh, LRRFIP1 / RFU, NDUFAF7 / Fold change vs veh, NDUFAF7 / RFU, SLC12A2 / Fold change vs veh, SLC12A2 / RFU, IBTK / Fold change vs veh, IBTK / RFU, ESF1 / Fold change vs veh, ESF1 / Fold change vs veh, TMEM50B / RFU, TAOK1 / Fold change vs veh, TAOK1 / RFU, ACBD3 / Fold change vs veh, ACBD3 / RFU, TMA16 / Fold change vs veh, TMA16 / RFU, RWDD3 / Fold change vs veh, RWDD3 / RFU, BCAT1 / Fold change vs veh, BCAT1 / RFU, EDEM3 / Fold change vs veh, EDEM3 / RFU, TMEM33 / Fold change vs veh, TMEM33 / RFU, WDR75 / Fold change vs veh, WDR75 / RFU, AHCTF1 / Fold change vs veh, AHCTF1 / RFU, TFRC / Fold change vs veh, TFRC / RFU, ZDHHC17 / Fold change vs veh, ZDHHC17 / RFU, NOM1 / Fold change vs veh, NOM1 / RFU, ARL8B / Fold change vs veh, ARL8B / RFU, ZBTB11 / Fold change vs veh, ZBTB11 / RFU, TAMM41 / Fold change vs veh, TAMM41 / RFU, KIAA1704 /// LOC100996395 / Fold change vs veh, KIAA1704 /// LOC100996395 / RFU, ING1 / Fold change vs veh, ING1 / RFU, TRMT61B / Fold change vs veh, TRMT61B / RFU, FUBP3 / Fold change vs veh, FUBP3 / RFU, TP53 / Fold change vs veh, TP53 / RFU, TNKS2 / Fold change vs veh, TNKS2 / RFU, ZFP14 / Fold change vs veh, ZFP14 / RFU, ACTR2 / Fold change vs veh, ACTR2 / RFU, PPP3R1 / Fold change vs veh, PPP3R1 / RFU, PIK3R1 / Fold change vs veh, PIK3R1 / RFU, HNRNPA1 / Fold change vs veh, HNRNPA1 / RFU, RNF170 / Fold change vs veh, RNF170 / RFU, ZNF28 / Fold change vs veh, ZNF28 / RFU, RNGTT / Fold change vs veh, RNGTT / RFU, OGT / Fold change vs veh, OGT / RFU, BRD1 / Fold change vs veh, BRD1 / RFU, MARS / Fold change vs veh, MARS / RFU, ZNF655 / Fold change vs veh, ZNF655 / RFU, FAHD1 / Fold change vs veh, FAHD1 / RFU, BDP1 / Fold change vs veh, BDP1 / RFU, LRRCC1 / Fold change vs veh, LRRCC1 / RFU, ARID1A / Fold change vs veh, ARID1A / RFU, ZNF146 / Fold change vs veh, ZNF146 / RFU, ZNF330 / Fold change vs veh, ZNF330 / RFU, GPN3 / Fold change vs veh, GPN3 / RFU, C9orf123 / Fold change vs veh, C9orf123 / RFU, N4BP2L2 / Fold change vs veh, N4BP2L2 / RFU, ARFIP1 / Fold change vs veh, ARFIP1 / RFU, FAM179B / Fold change vs veh, FAM179B / RFU, BCL10 / Fold change vs veh, BCL10 / RFU, UHRF1BP1L / Fold change vs veh, UHRF1BP1L / RFU, BET1 / Fold change vs veh, BET1 / RFU, CNOT2 / Fold change vs veh, CNOT2 / RFU, ZNF268 / Fold change vs veh, ZNF268 / Fold change vs veh, ZNF507 / RFU, DGCR2 / Fold change vs veh, DGCR2 / RFU, WDSUB1 / Fold change vs veh, WDSUB1 / Fold change vs veh, HSP90B1 /// MIR3652 / RFU, ADSS / Fold change vs veh, ADSS / RFU, GK / Fold change vs veh, GK / RFU, ZNF148 / Fold change vs veh, ZNF148 / RFU, TAF9 / Fold change vs veh, TAF9 / RFU, SLC1A5 / Fold change vs veh, SLC1A5 / RFU, SLMO2 / Fold change vs veh, SLMO2 / RFU, ABCC4 / Fold change vs veh, ABCC4 / RFU, LOC101060439 /// RAP1B / Fold change vs veh, LOC101060439 /// RAP1B / RFU, RFX7 / Fold change vs veh, RFX7 / RFU, GTPBP10 / Fold change vs veh, GTPBP10 / RFU, CNEP1R1 / Fold change vs veh, CNEP1R1 / RFU, BIVM-ERCC5 /// ERCC5 / Fold change vs veh, BIVM-ERCC5 /// ERCC5 / RFU, ILF3 / Fold change vs veh, ILF3 / RFU 11762660_at / Fold change /veh 11762660_at / RFU VCAN (11757783_s_at) / Fold change /veh VCAN (11757783_s_at) / RFU DDX43 (11728927_at) / Fold change /veh DDX43 (11728927_at) / RFU KRT8 (11758188_x_at) / Fold change /veh KRT8 (11758188_x_at) / RFU NKD1 (11759106_at) / Fold change /veh NKD1 (11759106_at) / RFU SRD5A1 (11742802_a_at) / Fold change /veh SRD5A1 (11742802_a_at) / RFU TPSAB1 /// TPSB2 (11721975_s_at) / Fold change /veh TPSAB1 /// TPSB2 (11721975_s_at) / RFU GSTM3 (11746129_a_at) / Fold change /veh GSTM3 (11746129_a_at) / RFU IL23R (11737362_x_at) / Fold change /veh IL23R (11737362_x_at) / RFU TMEM51 (11727254_a_at) / Fold change /veh TMEM51 (11727254_a_at) / RFU PIWIL2 (11732686_x_at) / Fold change /veh PIWIL2 (11732686_x_at) / RFU ORM1 (11744905_x_at) / Fold change /veh ORM1 (11744905_x_at) / RFU CCDC152 (11743942_at) / Fold change /veh CCDC152 (11743942_at) / RFU ECM1 (11717891_a_at) / Fold change /veh ECM1 (11717891_a_at) / RFU IL23R (11748794_a_at) / Fold change /veh IL23R (11748794_a_at) / RFU TNFAIP8L3 (11732012_x_at) / Fold change /veh TNFAIP8L3 (11732012_x_at) / RFU MBOAT4 (11741988_at) / Fold change /veh MBOAT4 (11741988_at) / RFU 11764193_at / Fold change /veh 11764193_at / RFU TMEM53 (11763286_at) / Fold change /veh TMEM53 (11763286_at) / RFU MAGEB2 (11727129_at) / Fold change /veh MAGEB2 (11727129_at) / RFU TMEM200A (11744735_a_at) / Fold change /veh TMEM200A (11744735_a_at) / RFU CCDC152 (11751479_a_at) / Fold change /veh CCDC152 (11751479_a_at) / RFU FAM211A (11726209_a_at) / Fold change /veh FAM211A (11726209_a_at) / RFU RGS16 (11746705_a_at) / Fold change /veh RGS16 (11746705_a_at) / RFU VCAN (11755009_s_at) / Fold change /veh VCAN (11755009_s_at) / RFU RHOB (11743442_s_at) / Fold change /veh RHOB (11743442_s_at) / RFU RGS16 (11720943_a_at) / Fold change /veh RGS16 (11720943_a_at) / RFU RGS16 (11720944_at) / Fold change /veh RGS16 (11720944_at) / RFU, VPS4B / Fold change vs veh, VPS4B / RFU, CREB1 / Fold change vs veh, CREB1 / RFU, DNAJC13 / Fold change vs veh, DNAJC13 / RFU, GNAQ / Fold change vs veh, GNAQ / RFU, CDK5R1 / Fold change vs veh, CDK5R1 / RFU, ZRANB3 / Fold change vs veh, ZRANB3 / RFU, CUL4A / Fold change vs veh, CUL4A / RFU, CCNY / Fold change vs veh, CCNY / RFU, UFL1 / Fold change vs veh, UFL1 / RFU, COG3 / Fold change vs veh, COG3 / RFU, DIAPH2 / Fold change vs veh, DIAPH2 / RFU, SKA2 / Fold change vs veh, SKA2 / RFU, AFF3 / Fold change vs veh, AFF3 / RFU, LMF1 / Fold change vs veh, LMF1 / RFU, IPO11 / Fold change vs veh, IPO11 / RFU, DFFB / Fold change vs veh, DFFB / RFU, FOXP1 / Fold change vs veh, FOXP1 / RFU, CARD8 / Fold change vs veh, CARD8 / RFU, STRN3 / Fold change vs veh, STRN3 / RFU, ADK / Fold change vs veh, ADK / RFU, RASSF2 / Fold change vs veh, RASSF2 / RFU, WIPF1 / Fold change vs veh, WIPF1 / RFU, LARP1B / Fold change vs veh, LARP1B / RFU, RASA1 / Fold change vs veh, RASA1 / RFU, RB1 / Fold change vs veh, RB1 / RFU, PPFIA1 / Fold change vs veh, PPFIA1 / RFU, MAT2A / Fold change vs veh, MAT2A / RFU, CCT5 / Fold change vs veh, CCT5 / RFU, WDR92 / Fold change vs veh, WDR92 / RFU, CUX1 / Fold change vs veh, CUX1 / RFU, TTC7A / Fold change vs veh, TTC7A / RFU, TMEM135 / Fold change vs veh, TMEM135 / RFU, DEPTOR / Fold change vs veh, DEPTOR / RFU, CPM / Fold change vs veh, CPM / RFU, DNAJB6 / Fold change vs veh, DNAJB6 / RFU, CACNA2D3 / Fold change vs veh, CACNA2D3 / RFU, DTX4 / Fold change vs veh, DTX4 / RFU, TFCP2 / Fold change vs veh, TFCP2 / RFU, GMCL1 /// GMCL1P1 / Fold change vs veh, GMCL1 /// GMCL1P1 / RFU, AEBP2 / Fold change vs veh, AEBP2 / RFU, SNHG1 /// SNORD22 /// SNORD25 /// SNORD26 /// SNORD27 /// SNORD28 /// SNORD29 /// SNORD31 / Fold change vs veh, SNHG1 /// SNORD22 /// SNORD25 /// SNORD26 /// SNORD27 /// SNORD28 /// SNORD29 /// SNORD31 / Fold change (Aza/veh), C12orf56 (ProbeSet 11735607_a_at) / Fold change (ACY-1035/veh), C12orf56 (ProbeSet 11735607_a_at) / Fold change (Aza/veh), FGFR1OP (ProbeSet 11751329_s_at) / Fold change (ACY-1035/veh), FGFR1OP (ProbeSet 11751329_s_at) / Fold change (Aza/veh), VPS36 (ProbeSet 11739960_a_at) / Fold change (ACY-1035/veh), VPS36 (ProbeSet 11739960_a_at) / RFU SYPL1 (11715823_x_at) / Fold change /veh SYPL1 (11715823_x_at) / RFU IGFBP7 (11715501_s_at) / Fold change /veh IGFBP7 (11715501_s_at) / RFU REEP3 (11722064_at) / Fold change /veh REEP3 (11722064_at) / RFU IGLL1 (11728026_x_at) / Fold change /veh IGLL1 (11728026_x_at): dose or concentration left out as unconfirmed. The following applies: ProbeSet 11738335_x_at; LIST B.

Structures are written as SMILES.

Here are results for 1 compound from article PMC5218480 (PLoS ONE, 2017).

On to `Nc1ccc(-c2cccs2)cc1NC(=O)c1ccc2c(c1)cc(C1CC1)n2CCN1CCOCC1` [ACY-1035], for which the “RFU, TP53” value was 73.59 RFU.
